We go through 23 molecules from patent US8791264B2 (Purdue Pharma L.P., priority 2006, dated 2014).

Test [1] has as its target T1, N-type calcium channel (NTCC) (Homo sapiens, UniProt Q00975).
T1 construct: host or cells: IMR32 cells differentiated with dibutyryl cAMP and bromodeoxyuridine
The test can be described thus: FLIPR calcium mobilization assay for N-type calcium channel. The class given is cell-based. Particulars: calcium mobilization in vitro assay; differentiated IMR32 cells. The method in brief: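 Differentiated IMR32 cells (8 days, dibutyryl cAMP and BrdU) loaded with 3 μM Fluo-4 during 90 mM KCl pre-stimulation, with compound at about 846 pM to 17 μM plus 5 μM nitrendipine. After washes in compound, FLIPR read basal fluorescence 315 s, then 45 s after KCl addition (final 90 mM).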

Test [2] concerns the target T2, recombinant rat L-type calcium channel (LTCC) subunits (α1c, α2δ, and β1) (Rattus norvegicus, UniProt P22002).
T2 construct: expressed in transfected cells
The test can be described thus: FLIPR calcium mobilization assay for L-type calcium channel. The class given is cell-based. Particulars: calcium mobilization in vitro assay; HEK293 cells expressing rat LTCC. On the procedure: Recombinant human embryonal kidney cells (HEK293, ATCC) stably transfected with either N-type calcium channel (NTCC) subunits (α1b, α2δ, and ⊖3) or L-type calcium channel (LTCC) subunits (α1, α2δ, and β1) were routinely cultured in growth medium consisting of Dulbecco's Modified Eagles Medium containing 10% FBS, 100 U/mL penicillin, 100 μg/mL streptomycin, 4 mM L-glutamine, 500 μg/mL geneticin (G418), 20 μg/mL Blasticidin S (InVivogen, San Diego, Calif.) and 500 μg/mL zeocin (InVivogen).
FLIPR Calcium Mobilization Assay for L-Type Calcium Channel.
One day prior to performing this assay, HEK293 cells stably expressing recombinant rat L-type calcium channel (LTCC) subunits (α1c, α2δ, and β1) were trypsinized, then seeded on poly-D-lysine-coated 96-well clear-bottom black plates (Becton Dickinson, Franklin Lakes, N.J.) at 75,000 cells/well. On the day of the assay, the plates were washed with LTCC wash buffer (127 mM NaCl, 2 mM MgCl2, 700 μM NaH2PO4, 5 mM CaCl2, 5 mM NaHCO3, 8 mM HEPES, 10 mM glucose, pH 7.4), then loaded with 0.1 mL of LTCC wash buffer containing Fluo-4 (3 μM final concentration, Molecular Probes, Eugene, Oreg.). After 1 hour, the cells were washed with 0.1 mL LTCC wash buffer and resuspended in 0.05 mL LTCC assay buffer (same composition as LTCC wash buffer). Plates were then transferred to a FLIPR^96 for assay. The FLIPR measured basal Fluo-4 fluorescence for 15 seconds, then is added 0.05 mL of each compound tested diluted in LTCC assay buffer at final concentrations ranging from about 846 pM to about 17 μM. Fluo-4 fluorescence was then measured for 5 minutes. 0.1 mL KCl agonist dissolved in LTCC assay buffer was then added to the cells to produce a final concentration of 90 mM KCl, and fluorescence was measured for another 45 seconds. Data were collected over the entire time course and analyzed using Excel, Graph Pad Prism, or an in-house regression analysis software.

Structures are written as SMILES.

T1 sequence (Q00975 whole entry): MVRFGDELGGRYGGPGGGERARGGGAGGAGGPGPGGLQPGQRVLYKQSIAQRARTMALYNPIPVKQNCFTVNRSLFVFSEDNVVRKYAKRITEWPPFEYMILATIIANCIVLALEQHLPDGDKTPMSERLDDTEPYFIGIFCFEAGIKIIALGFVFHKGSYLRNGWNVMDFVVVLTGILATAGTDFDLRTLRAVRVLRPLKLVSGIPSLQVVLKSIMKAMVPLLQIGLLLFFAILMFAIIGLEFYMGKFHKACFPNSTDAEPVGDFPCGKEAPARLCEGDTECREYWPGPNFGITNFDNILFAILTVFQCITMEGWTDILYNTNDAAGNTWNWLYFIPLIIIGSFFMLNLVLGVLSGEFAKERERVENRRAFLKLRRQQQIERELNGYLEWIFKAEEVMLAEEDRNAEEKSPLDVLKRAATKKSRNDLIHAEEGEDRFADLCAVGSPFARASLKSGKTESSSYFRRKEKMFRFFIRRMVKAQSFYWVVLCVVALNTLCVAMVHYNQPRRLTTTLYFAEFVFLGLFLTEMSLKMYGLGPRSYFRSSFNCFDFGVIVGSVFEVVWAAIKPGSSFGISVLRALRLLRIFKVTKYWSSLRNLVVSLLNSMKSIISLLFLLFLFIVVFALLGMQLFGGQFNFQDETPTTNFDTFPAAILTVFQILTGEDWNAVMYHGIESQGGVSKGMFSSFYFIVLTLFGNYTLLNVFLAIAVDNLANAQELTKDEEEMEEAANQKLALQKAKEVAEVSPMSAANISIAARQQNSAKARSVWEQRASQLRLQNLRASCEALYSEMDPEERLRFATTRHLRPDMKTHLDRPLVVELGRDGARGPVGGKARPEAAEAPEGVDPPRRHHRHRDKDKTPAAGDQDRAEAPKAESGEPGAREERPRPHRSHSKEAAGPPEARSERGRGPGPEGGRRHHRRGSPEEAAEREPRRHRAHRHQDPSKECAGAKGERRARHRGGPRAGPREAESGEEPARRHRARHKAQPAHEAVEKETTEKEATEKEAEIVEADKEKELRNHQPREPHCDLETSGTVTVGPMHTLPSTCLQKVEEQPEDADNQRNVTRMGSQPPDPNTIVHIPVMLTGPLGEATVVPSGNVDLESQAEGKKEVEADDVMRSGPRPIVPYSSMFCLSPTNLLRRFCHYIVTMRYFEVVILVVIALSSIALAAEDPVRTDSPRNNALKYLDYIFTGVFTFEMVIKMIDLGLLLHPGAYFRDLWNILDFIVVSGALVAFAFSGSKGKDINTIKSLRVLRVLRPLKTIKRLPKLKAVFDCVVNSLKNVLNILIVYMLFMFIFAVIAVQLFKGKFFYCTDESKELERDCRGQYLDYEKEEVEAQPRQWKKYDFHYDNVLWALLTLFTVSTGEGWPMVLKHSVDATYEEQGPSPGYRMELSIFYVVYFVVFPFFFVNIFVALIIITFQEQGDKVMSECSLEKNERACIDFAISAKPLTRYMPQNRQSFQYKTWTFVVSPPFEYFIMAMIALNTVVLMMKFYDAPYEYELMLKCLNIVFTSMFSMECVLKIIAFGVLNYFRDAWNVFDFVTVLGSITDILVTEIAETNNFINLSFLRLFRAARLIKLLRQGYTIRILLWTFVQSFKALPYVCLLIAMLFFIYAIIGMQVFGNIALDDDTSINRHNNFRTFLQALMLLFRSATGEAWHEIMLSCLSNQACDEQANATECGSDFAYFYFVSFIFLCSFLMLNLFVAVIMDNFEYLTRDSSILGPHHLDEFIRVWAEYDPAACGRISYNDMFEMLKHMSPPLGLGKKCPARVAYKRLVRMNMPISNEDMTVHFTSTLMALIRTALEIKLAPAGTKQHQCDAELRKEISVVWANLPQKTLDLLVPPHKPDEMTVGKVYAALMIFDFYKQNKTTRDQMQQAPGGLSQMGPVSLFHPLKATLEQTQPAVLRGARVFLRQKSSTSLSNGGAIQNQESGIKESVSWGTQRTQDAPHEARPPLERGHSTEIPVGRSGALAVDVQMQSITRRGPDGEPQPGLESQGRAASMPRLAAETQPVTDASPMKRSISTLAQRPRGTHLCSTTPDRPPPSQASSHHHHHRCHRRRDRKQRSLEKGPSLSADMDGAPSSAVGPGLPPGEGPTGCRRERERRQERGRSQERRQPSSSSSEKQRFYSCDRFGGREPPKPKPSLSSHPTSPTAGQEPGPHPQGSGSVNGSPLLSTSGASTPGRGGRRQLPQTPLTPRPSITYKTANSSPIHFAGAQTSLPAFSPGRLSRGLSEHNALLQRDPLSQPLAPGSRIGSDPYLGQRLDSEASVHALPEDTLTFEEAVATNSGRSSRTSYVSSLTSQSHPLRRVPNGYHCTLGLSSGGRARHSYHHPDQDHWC
T1 sequence (P54289 25-956 partner limits assumed): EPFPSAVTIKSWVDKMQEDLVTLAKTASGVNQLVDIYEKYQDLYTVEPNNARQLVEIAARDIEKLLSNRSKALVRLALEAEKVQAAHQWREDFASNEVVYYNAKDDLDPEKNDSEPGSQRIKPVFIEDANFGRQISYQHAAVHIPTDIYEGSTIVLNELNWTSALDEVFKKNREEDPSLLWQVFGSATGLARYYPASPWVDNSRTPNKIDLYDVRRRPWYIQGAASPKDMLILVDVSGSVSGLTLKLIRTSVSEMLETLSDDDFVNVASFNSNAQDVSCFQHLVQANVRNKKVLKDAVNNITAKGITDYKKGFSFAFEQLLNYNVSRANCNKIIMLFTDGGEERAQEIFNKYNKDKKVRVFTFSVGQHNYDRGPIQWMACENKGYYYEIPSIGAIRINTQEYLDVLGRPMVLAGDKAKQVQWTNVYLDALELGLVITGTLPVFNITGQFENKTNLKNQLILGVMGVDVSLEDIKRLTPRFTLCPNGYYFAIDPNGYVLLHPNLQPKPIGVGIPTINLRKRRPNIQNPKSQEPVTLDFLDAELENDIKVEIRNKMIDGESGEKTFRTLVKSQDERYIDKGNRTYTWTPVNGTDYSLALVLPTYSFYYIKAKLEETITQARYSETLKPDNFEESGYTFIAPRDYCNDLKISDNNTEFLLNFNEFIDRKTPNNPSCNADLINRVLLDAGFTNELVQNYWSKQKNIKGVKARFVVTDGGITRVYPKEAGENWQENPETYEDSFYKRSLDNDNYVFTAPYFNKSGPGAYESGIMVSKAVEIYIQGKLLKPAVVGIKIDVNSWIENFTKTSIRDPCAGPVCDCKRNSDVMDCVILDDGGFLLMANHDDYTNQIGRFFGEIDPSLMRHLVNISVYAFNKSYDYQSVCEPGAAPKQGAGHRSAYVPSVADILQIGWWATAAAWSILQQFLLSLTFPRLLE
T1 sequence (P54289 957-1103 partner limits assumed): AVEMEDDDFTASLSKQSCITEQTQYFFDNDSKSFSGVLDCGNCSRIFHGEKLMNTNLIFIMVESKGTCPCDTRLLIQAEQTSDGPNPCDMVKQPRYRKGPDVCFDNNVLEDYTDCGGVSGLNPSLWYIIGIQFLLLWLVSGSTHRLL
T1 sequence (P54284 whole entry partner): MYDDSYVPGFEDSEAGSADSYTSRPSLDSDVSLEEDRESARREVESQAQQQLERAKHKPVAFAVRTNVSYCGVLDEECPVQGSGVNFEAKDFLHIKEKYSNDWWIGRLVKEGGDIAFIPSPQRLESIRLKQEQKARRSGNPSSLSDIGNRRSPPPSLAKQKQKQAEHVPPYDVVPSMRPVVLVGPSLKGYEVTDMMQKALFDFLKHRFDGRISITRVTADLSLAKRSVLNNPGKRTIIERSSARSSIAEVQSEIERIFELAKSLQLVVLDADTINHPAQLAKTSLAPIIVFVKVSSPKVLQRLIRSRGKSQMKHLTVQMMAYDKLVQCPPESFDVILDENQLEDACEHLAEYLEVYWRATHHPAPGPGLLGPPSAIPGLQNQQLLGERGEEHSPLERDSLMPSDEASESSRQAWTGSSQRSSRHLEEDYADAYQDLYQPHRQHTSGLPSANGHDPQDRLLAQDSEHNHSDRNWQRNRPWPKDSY

As to `CCOC(=O)c1ccc(NC(=O)CN2CCC(N(C3CC3)S(=O)(=O)c3cccc(C(F)(F)F)c3)CC2)cc1` [Compound 54, 4-(2-{4-[Cyclopropyl-(3-trifluoromethylbenzenesulfonyl)amino]-piperidin-1-yl}-acetylamino)benzoic acid ethyl ester], the IC50 in test [1] is 540 nM; in test [2], > 20000 nM.

As for `O=C(CN1CCC(N(C2CC2)S(=O)(=O)c2cccc(C(F)(F)F)c2)CC1)Nc1ccc(C(F)(F)F)cc1` [Compound 55, 2-{4-[Cyclopropyl-(3-trifluoromethylbenzenesulfonyl)amino]-piperidin-1-yl}-N-(4-trifluoromethylphenyl)acetamide], the IC50 is 720 nM in test [1] and > 20000 nM in test [2].

With `CC(C)(C)c1ccc(NC(=O)CN2CCC(N(C3CC3)S(=O)(=O)c3cccc(C(F)(F)F)c3)CC2)cc1` [Compound 56], the IC50 in test [1] was 760 nM; in test [2] it was > 20000 nM.

Consider `O=C(CN1CCC(N(C2CC2)S(=O)(=O)c2cccc(C(F)(F)F)c2)CC1)Nc1ccccc1` [Compound 57, 2-{4-[Cyclopropyl-(3-trifluoromethylbenzenesulfonyl)-amino]-piperidin-1-yl}-N-phenyl-acetamide], for which the half-inhibitory concentration (IC50) in test [1] is 530 nM; in test [2], > 20000 nM.

Take `Cc1cccc(C)c1NC(=O)CN1CCC(N(C2CC2)S(=O)(=O)c2cccc(C(F)(F)F)c2)CC1` [Compound 58, 2-{4-[Cyclopropyl-(3-trifluoromethylbenzenesulfonyl)-amino]-piperidin-1-yl}-N-(2,6-dimethylphenyl)acetamide]: the IC50 in test [1] was 310 nM; in test [2], 5920 nM.

Turning to `CC(C)c1ccc(NC(=O)CN2CCC(N(C3CC3)S(=O)(=O)c3cccc(C(F)(F)F)c3)CC2)cc1` [Compound 59, 2-{4-[Cyclopropyl-(3-trifluoromethylbenzenesulfonyl)-amino]-piperidin-1-yl}-N-(4-isopropylphenyl)acetamide], the IC50 is 420 nM in test [1] and 10000 to 20000 nM in test [2].

In the case of `CN(C1CCN(CC(=O)Nc2ccc(C(F)(F)F)cc2)CC1)S(=O)(=O)c1cccc(C(F)(F)F)c1` [Compound 60, 2-{4-[Methyl-(3-trifluoromethylbenzenesulfonyl)-amino]-piperidin-1-yl}-N-(4-trifluoromethylphenyl)acetamide], the IC50 in test [1] was 990 nM; in test [2], > 20000 nM.

As for `O=C(CN1CCC(N(C2CC2)S(=O)(=O)c2cccc(C(F)(F)F)c2)CC1)Nc1cc(C(F)(F)F)cc(C(F)(F)F)c1` [Compound 63, N-(3,5-Bis-trifluoromethylphenyl)-2-{4-[cyclopropyl-(3-trifluoromethylbenzenesulfonyl)amino]-piperidin-1-yl}-acetamide], the IC50 was 660 nM in test [1] and > 20000 nM in test [2].

As for `O=C(CN1CCC(N(C2CC2)S(=O)(=O)c2cccc(C(F)(F)F)c2)CC1)NCc1cc(C(F)(F)F)cc(C(F)(F)F)c1` [Compound 64, N-(3,5-Bis-trifluoromethylbenzyl)-2-{4-[cyclopropyl-(3-trifluoromethylbenzenesulfonyl)amino]-piperidin-1-yl}-acetamide], the IC50 is 220 nM in test [1] and > 20000 nM in test [2].

Turning to `CCOc1cc(F)ccc1NC(=O)CN1CCC(N(C2CC2)S(=O)(=O)c2cccc(C(F)(F)F)c2)CC1` [Compound 70, 2-{4-[Cyclopropyl-(3-trifluoromethylbenzenesulfonyl)amino]-piperidin-1-yl}-N-(2-ethoxy-4-fluorophenyl)-acetamide], the IC50 is 920 nM in test [1] and > 20000 nM in test [2].

For the molecule `O=C(CN1CCC(N(C2CC2)S(=O)(=O)c2cccc(C(F)(F)F)c2)CC1)Nc1ccc(F)c(C(F)(F)F)c1` [Compound 71, 2-{4-[Cyclopropyl-(3-trifluoromethylbenzenesulfonyl)amino]-piperidin-1-yl}-N-(4-fluoro-3-trifluoromethylphenyl)-acetamide], the half-inhibitory concentration (IC50) in test [1] is 610 nM; in test [2], > 20000 nM.

`O=C(CN1CCC(N(C2CC2)S(=O)(=O)c2cccc(C(F)(F)F)c2)CC1)Nc1cc(F)cc(C(F)(F)F)c1` [Compound 73, 2-{4-[Cyclopropyl-(3-trifluoromethylbenzenesulfonyl)amino]-piperidin-1-yl}-N-(3-fluoro-5-trifluoromethylphenyl)-acetamide]: the IC50 in test [1] is 610 nM; in test [2], > 20000 nM.

On to `O=C(CN1CCC(N(C2CC2)S(=O)(=O)c2cccc(C(F)(F)F)c2)CC1)Nc1cc(F)cc(F)c1` [Compound 74, 2-{4-[Cyclopropyl-(3-trifluoromethylbenzenesulfonyl)amino]-piperidin-1-yl}-N-(3,5-difluorophenyl)-acetamide], for which the IC50 in test [1] was 370 nM; in test [2] it was 6600 nM.

As to `O=C(CN1CCC(N(C2CC2)S(=O)(=O)c2cccc(C(F)(F)F)c2)CC1)Nc1ccc(C(F)(F)F)cc1F` [Compound 75, 2-{4-[Cyclopropyl-(3-trifluoromethylbenzenesulfonyl)amino]-piperidin-1-yl}-N-(2-fluoro-4-trifluoromethylphenyl)-acetamide], the IC50 is 780 nM in test [1] and > 20000 nM in test [2].

With `O=C(CN1CCC(N(C2CC2)S(=O)(=O)c2cccc(C(F)(F)F)c2)CC1)Nc1cncc(F)c1` [Compound 78, 2-{4-[Cyclopropyl-(3-trifluoromethylbenzenesulfonyl)amino]-piperidin-1-yl}-N-(5-fluoro-pyridin-3-yl)-acetamide], the half-maximal inhibitory concentration (IC50) in test [1] was 610 nM; in test [2] it was > 20000 nM.

For the molecule `O=C(CN1CCC(N(C2CC2)S(=O)(=O)c2cccc(C(F)(F)F)c2)CC1)Nc1cc(Cl)cc(Cl)c1` [Compound 79, 2-{4-[Cyclopropyl-(3-trifluoromethylbenzenesulfonyl)amino]-piperidin-1-yl}-N-(3,5-dichlorophenyl)-acetamide], the figures for the concentration for half-maximal inhibition (IC50) in test [1] and in test [2] were 860 nM and > 20000 nM, respectively.

`Cc1cc(C)cc(NC(=O)CN2CCC(N(C3CC3)S(=O)(=O)c3cccc(C(F)(F)F)c3)CC2)c1` [Compound 80, 2-{4-[Cyclopropyl-(3-trifluoromethylbenzenesulfonyl)amino]-piperidin-1-yl}-N-(3,5-dimethylphenyl)-acetamide]: the IC50 was 500 nM in test [1] and > 20000 nM in test [2].

As for `N#Cc1cc(F)cc(NC(=O)CN2CCC(N(C3CC3)S(=O)(=O)c3cccc(C(F)(F)F)c3)CC2)c1` [Compound 81, N-(3-Cyano-5-fluorophenyl)-2-{4-[cyclopropyl-(3-trifluoromethyl-benzenesulfonyl)amino]-piperidin-1-yl}-acetamide], the half-inhibitory concentration (IC50) in test [1] was 360 nM; in test [2] it was > 20000 nM.

Consider `CC(C)N(C1CCN(CC(=O)N(c2ccc(F)cc2)c2ccc(F)cc2)CC1)S(=O)(=O)c1cccc(C(F)(F)F)c1` [Compound 84, N,N-Bis-(4-fluorophenyl)-2-{4-[isopropyl-(3-trifluoromethyl-benzenesulfonyl)amino]-piperidin-1-yl}-acetamide], for which the IC50 in test [1] is 320 nM; in test [2], > 20000 nM.

Consider `CC(C)C[C@H](NCc1ccccc1)C(=O)N1CCC(N(C(C)C)S(=O)(=O)c2cccc(C(F)(F)F)c2)CC1` [Compound 88b, (S)—N-[1-(2-Benzylamino-4-methylpentanoyl)-piperidin-4-yl]-N-isopropyl-3-trifluoromethylbenzenesulfonamide], for which the IC50 in test [1] was 300 nM; in test [2], > 20000 nM.

With `CC(C)C[C@H](NC1CCCC1)C(=O)N1CCC(N(C(C)C)S(=O)(=O)c2cccc(C(F)(F)F)c2)CC1` [Compound 88c, (S)—N-[1-(2-Cyclopentylamino-4-methyl-pentanoyl)-piperidin-4-yl]-N-isopropyl-3-trifluoromethyl-benzenesulfonamide], the IC50 in test [1] was found to be 620 nM; in test [2], 7080 nM.

In the case of `CC(C)N(C1CCN(C(=O)[C@H](Cc2ccccc2)NCC2CCCCC2)CC1)S(=O)(=O)c1cccc(C(F)(F)F)c1` [Compound 88d, (S)—N-{1-[2-(Cyclohexylmethyl-amino)-3-phenyl-propionyl]-piperidin-4-yl}-N-isopropyl-3-trifluoromethyl-benzenesulfonamide], the results for the concentration for half-maximal inhibition (IC50) in test [1] and in test [2] were 100 nM and 3580 nM, respectively.

Take `CC(C)N(C1CCN(C(=O)CNCc2ccccc2)CC1)S(=O)(=O)c1cccc(C(F)(F)F)c1` [Compound 93, N-[1-(2-Benzylaminoacetyl)-piperidin-4-yl]-N-isopropyl-3-trifluoromethylbenzenesulfonamide]: the IC50 in test [1] is 560 nM; in test [2] it was 10000 to 20000 nM.

As a reminder, the IC50 is the concentration needed to halve the response being measured.
